Results taken from EPA's aquatic toxicity sets.

System: Tetrahymena pyriformis
Test: 48 h IGC50 (-log10 mol/L); higher = more toxic

Row | SMILES | 48 h IGC50 (-log10 mol/L)
1 | CCCC(=O)CCC | 2.33
2 | CC(=O)c1ccc(O)cc1C | 3.19
3 | N#Cc1ccncc1 | 2.18
4 | Oc1cccc(Cl)c1Cl | 4.28
5 | CCCCCCCCCCC#N | 4.65
6 | CCCCCCCCCC(=O)O | 3.51
7 | CCCCCl | 2.09
8 | Oc1ccccc1Br | 3.33
9 | N#Cc1ccccc1N | 2.5
10 | Nc1cc(Cl)c([N+](=O)[O-])cc1O | 4.17
11 | C=CC(=O)OC(C)(C)C | 3.27
12 | CCCCCCCCC(O)CO (configuration not stated) | 3.76
13 | OCCCc1ccccc1 | 2.79
14 | OC/C=C/c1ccccc1 | 2.92
15 | c1ccc(Cc2ccncc2)cc1 | 3.63
16 | CCCCOC(=O)c1ccccc1 | 3.92
17 | CCC(Br)C(=O)OC (configuration not stated) | 4.02
18 | Oc1cccc(I)c1 | 4.12
19 | CC/C=C\CCCCCC=O | 3.95
20 | CCCC(C)O (configuration not stated) | 1.84
21 | O=Cc1ccccn1 | 2.86
22 | Oc1ccc(-c2ccc(Br)cc2)cc1 | 5.31
23 | Cc1cccc(C)c1N | 2.57
24 | CC/C=C/C=C/C=O | 3.86
25 | NCc1ccc(Cl)cc1 | 3.16

Row | SMILES | 48 h IGC50 (-log10 mol/L)
26 | CCOc1cccc(C=O)c1O | 3.85
27 | O=Cc1ccc2c(c1)Cc1ccccc1-2 | 4.5
28 | CCOC(=O)CCBr | 3.13
29 | c1csc(-c2cccs2)c1 | 4.04
30 | CC(C)C=CC=O | 3.82
31 | N#CCCc1ccccc1 | 2.84
32 | CC#CCO | 2.13
33 | CC(=O)N(C)C | 1.05
34 | COc1ccc(N)cc1O | 3.45
35 | O=Cc1cc(O)c(O)c(O)c1 | 2.8
36 | O=C(O)CCCCBr | 2.31
37 | CC1CCCCC1=O (configuration not stated) | 2.19
38 | OCCCBr | 2.07
39 | NCCCCCO | 1.24
40 | O=C(O)CCCCCl | 2.71
41 | CC(=O)O[C@@H]1C[C@@H]2CC[C@@]1(C)C2(C)C | 3.68
42 | Cc1cnccn1 | 1.91
43 | OCCCCCl | 2.24
44 | O=[N+]([O-])c1ccccc1Cl | 3.68
45 | O=C(CBr)c1ccc2ccccc2c1 | 5.96
46 | OCCCCCCBr | 3.01
47 | COc1ccc(CO)cc1O | 2.01
48 | CCC(C)OC(C)=O (configuration not stated) | 2.32
49 | CCNC(C)=O | 1.3
50 | CCCCCCCC(C)O (configuration not stated) | 3.62

Row | SMILES | 48 h IGC50 (-log10 mol/L)
51 | CCS(=O)(=O)CC | 1.16
52 | OCCCCCCc1ccccc1 | 3.87
53 | N#Cc1c(F)c(F)c(C#N)c(F)c1F | 5.55
54 | CC#CC(=O)OCC | 3.51
55 | CCOC(=O)CC(C)C | 2.28
56 | OCCCCc1ccccc1 | 3.12
57 | CCOc1ccc(O)cc1 | 3.01
58 | CCOC(=O)C(Cl)C(=O)OCC | 3.63
59 | O=[N+]([O-])c1cccnc1Cl | 3.87
60 | CCC/C=C/C(C)=O | 3.7
61 | NNC(=O)Cc1ccccc1 | 2.52
62 | COc1ccc(C=O)cc1O | 2.86
63 | C1CSCCS1 | 2.89
64 | OCC(c1ccccc1)c1ccccc1 | 3.65
65 | CC(C)c1ccc(N)cc1 | 3.22
66 | CCCCC#CCCO | 3.02
67 | CCC(O)CC | 1.76
68 | CCC#CCC(O)CC (configuration not stated) | 2.62
69 | O=C(O)c1cc(Br)ccc1Br | 2.69
70 | Cc1ccncc1C | 2.5
71 | OCc1ccccc1Br | 3.1
72 | N#Cc1cc([N+](=O)[O-])c(Cl)c([N+](=O)[O-])c1 | 5.66
73 | CC(Br)C(N)=O (configuration not stated) | 3
74 | COC(=O)c1ccc(Br)cc1 | 3.6
75 | CCC(O)Cc1ccccc1 (configuration not stated) | 2.84

Row | SMILES | 48 h IGC50 (-log10 mol/L)
76 | OCCc1ccc(O)cc1 | 2.17
77 | CCOC(=O)c1ccc(C)cc1 | 3.68
78 | CCCCCCCCCO | 3.85
79 | N#CCc1ccc([N+](=O)[O-])cc1 | 3.13
80 | SC1CCCCC1 | 3
81 | O=[N+]([O-])/C=C/c1ccco1 | 5.04
82 | CN(C)Cc1cc(CN(C)C)c(O)c(CN(C)C)c1 | 2.48
83 | N#CCCCCC#N | 1.46
84 | CCOC(=O)C[C@H](O)CC#N | 1.36
85 | Oc1ccc(O)c(Br)c1 | 4.68
86 | Cc1ccnc(Cl)c1[N+](=O)[O-] | 3.29
87 | N#CCCCC#N | 1.36
88 | NNC(=O)CCCCC(=O)NN | 1.63
89 | CCCOC(=O)CC | 2.19
90 | O=C(CBr)c1cc2ccccc2oc1=O | 5.66
91 | O=[N+]([O-])c1ccc(F)cc1O | 4.12
92 | CC(C)c1ccc(Br)cc1 | 3.85
93 | CNCC(O)CO (configuration not stated) | 1.47
94 | O=C(O)c1cc(Cl)cc(Cl)c1 | 3.27
95 | O=C(O)CCCBr | 2.23
96 | CCCC(Br)C(=O)OCC (configuration not stated) | 3.7
97 | Nc1c(Cl)cc(Cl)cc1[N+](=O)[O-] | 4.26
98 | C/C=C/C(=O)CC | 3.92
99 | C=COC(=O)/C=C/C | 2.85
100 | CCOC(=O)C(C)C(=O)OCC | 2.49

Row | SMILES | 48 h IGC50 (-log10 mol/L)
101 | Cc1ccc(Br)s1 | 3.65
102 | Nc1ccc(O)c(N)c1 | 3.13
103 | CC(O)Cc1ccccc1 (configuration not stated) | 2.38
104 | CCCC(=O)NN | 2.03
105 | CCCCCCCCCCCC(C)O (configuration not stated) | 5.17
106 | Oc1ccc(C(F)(F)F)cc1 | 3.62
107 | CCOC(=O)C=C(C)C | 2.52
108 | CCCNC(C)=O | 1.5
109 | OCc1ccc(-c2ccccc2)cc1 | 3.92
110 | C#CCOC(=O)C=C | 4.06
111 | O=C(c1ccccc1)c1ccccc1O | 4.23
112 | NC(=S)NCc1ccccc1 | 3.66
113 | CCOC(=O)C(Br)CBr (configuration not stated) | 5.21
114 | CCN(CC)C(=O)CCl | 3.52
115 | CCCCCCCCCCC#CCCO | 5.38
116 | CCC[C@H](O)c1ccccc1 | 2.91
117 | CC(=O)c1ccc(C)[nH]1 | 2.17
118 | CCCC/C=C/C(C)=O | 3.74
119 | OCc1c(F)c(F)c(F)c(F)c1F | 2.8
120 | OCCC(c1ccccc1)c1ccccc1 | 4.04
121 | CC(C)C(C)O (configuration not stated) | 2
122 | O=Cc1cccs1 | 2.95
